PMC9817974, “Pharmacokinetic Basis for Using Saliva Matrine Concentrations as a Clinical Compliance Monitoring in Antitumor B Chemoprevention Trials in Humans” (Cancers, 2022)
Values joined by “and” are separate entries in the source; they are usually repeats but may differ in a detail not shown here. Equal entries are not always repeated. Where two headings read alike, the source gives them in different places.

How the values were obtained:
[1] = Sample stability of ATB components (bench, freeze-thaw, short-term, long-term); assay type: physicochemical; details: in % (unit assumed)
[2] = set-up: method as in Bui et al. [9]; details: ref Bui et al. [9]; cited from earlier work
[3] = Single-dose oral pharmacokinetic study of ATB tablets in healthy human subjects (plasma and saliva, non-compartmental analysis); assay type: in vivo; details: for AUC(0-t) / Cmax / Tmax / half-life / Kp: both sexes, human, po; for Kp: saliva and plasma; for inter-subject variability of systemic exposure (AUC): n = 8
Method: In addition, in vivo correlation between plasma and saliva concentrations was determined as the secondary outcome.
The ratio of drug concentration in plasma and saliva were calculated using Equations (1) and (2). (1) RCmax=Cmax saliva/Cmax plasma (2) RAUC=AUC0–24 saliva/AUC0–24 plasma […]
S2.1. Human Pharmacokinetic Study Design
The study was conducted in two phases. Two self-volunteered subjects participated in the study […]
Participants refrained from consumption of […]
dosing blood and saliva samples were collected. Each participant received single-dose oral […]
saliva sample kit for salivary collection. Plasma samples were then collected by centrifugation of […]
hour post-administration. […]
administration. […] Throughout the […]
collected and saline lock was removed. Participants returned the next day morning for 24-hour […]
Participants fasted 8-12 hours before each

[4] = set-up: method as in Gao et al. [11]; details: blood/plasma ratio; ref Gao et al. [11]; cited from earlier work
[5] = set-up: method as in ref [3] of Supplement S4 (Bui et al.); details: mice; ref [3] of Supplement S4 (Bui et al.); cited from earlier work
[6] = Stability of ATB tablets (ICH storage conditions)
Method: Two independent batches of ATB tablets were tested according to International Conference on Harmonization (ICH) Guideline for long-term (12 months at 25 ± 2 °C/60 ± 5% RH), intermediate (6 months at 30 ± 2 °C/65 ± 5% RH), and accelerated (40 ± 2 °C/75 ± 5% RH) stability [12].

[7] = Sample stability of ATB components (bench, freeze-thaw, short-term, long-term); assay type: physicochemical; details: in % (unit assumed); remark: listed apart in the source
Method: samples for calibration were prepared. The study and QC samples were prepared on the same day as the UPLC-MS/MS analysis was done.
Calibration curves were prepared the same way as described in section S1.2.2. The linearity of each calibration curve was determined by plotting the peak area ratio of Matr, Maac, Dict, and Frax to I.S. in plasma. […] The lower limit of […] was defined based on a signal-to-noise ratio of 10:1.
S1.2.4 Extraction recovery and matrix effect
The extraction recoveries of Matr, Maac, Dict, and Frax were determined by comparing the relative peak areas obtained from blank plasma spiked with analytes and those obtained from water spiked with the same amounts of analytes. Matrix effect was determined by comparing the peak areas of blank plasma extracts spikes with analytes and I.S. with those of the standard solutions dried and reconstituted with mobile phase. The quality control samples were prepared in plasma.
Bench work (25°C for 4 hours), short-term (-20°C for 7 days), long-term (-80°C for 4 months) and three freeze-thaw cycle stabilities were determined.

[8] = set-up: method as in Gao et al. [11]; details: plasma; 1.2 g ATB (equal to 4.8 mg Matr); ref Gao et al. [11]; cited from earlier work
OCT1, OCT2 and OCT3 = system: OCT1, OCT2 and OCT3; set-up: method as in PMID 33896325; details: read-out: Km of uptake by OCT1, OCT2 and OCT3; cited from earlier work
[9] = set-up: method as in PMID 33896325; details: cited from earlier work
[10] = average of 8 healthy volunteers, single oral dose 2400 mg ATB
[11] = average of 8 healthy volunteers, single oral dose 2400 mg ATB, plasma
[12] = average of 8 healthy volunteers, single oral dose 2400 mg ATB, saliva
[13] = individual subjects, single oral dose 2400 mg ATB (8 tablets)
[14] = individual subjects, single oral dose 2400 mg ATB (8 tablets), plasma
[15] = individual subjects, single oral dose 2400 mg ATB (8 tablets), saliva

O=C1CCC[C@@H]2[C@H]3CCCN4CCC[C@@H](CN12)[C@@H]34 [matrine]
Stability, Long-term (6 months, -80 oC) ([1]; HQC concentration level): 94.6 ± 6.7 | Stability, Bench work (4 hrs, 25 oC) ([1]; LOQ concentration level): 110.5 ± 18.0 | Stability, Long-term (6 months, -80 oC) ([1]; LOQ concentration level): 96.2 ± 0.6 | Stability, Short-term (7 days, -20 oC) ([1]; LOQ concentration level): 86.6 ± 3.8 | Stability, Long-term (6 months, -80 oC) ([1]; MQC concentration level): 105.8 ± 3.8 | Stability, Short-term (7 days, -20 oC) ([1]; MQC concentration level): 85.7 ± 8.7 | First pass effect [2]: 26.00% | AUC0–24 Saliva/Plasma Ratio [3, 10]: 4.8 ± 1.7 | Cmax Saliva/Plasma Ratio [3, 10]: 6.4 ± 1.8 | AUC0–24 Plasma [3, 11]: 278.34 ± 84.90 ng·h/mL | Half-Life Plasma [3, 11]: 10.38 ± 3.83 h | Tmax Plasma [3, 11]: 2.16 ± 0.69 h | AUC0–24 Saliva [3, 12]: 1302.37 ± 459.28 ng·h/mL | Half-Life Saliva [3, 12]: 12.37 ± 7.01 h | Tmax Saliva [3, 12]: 1.56 ± 0.82 h | AUC(0-t) ([3]; plasma, 2.6 mg, plasma, 2.6 mg Matr p.o. (8 ATB tablets), read-out: AUC0-T Healthy Volunteers Observed): 278 ng·h/mL | Cmax ([3]; plasma, 2.6 mg, plasma, 2.6 mg Matr p.o. (8 ATB tablets), read-out: Cmax Healthy Volunteers Observed): 25.2 ng/mL | Tmax ([3]; plasma, 2.6 mg, plasma, 2.6 mg Matr p.o. (8 ATB tablets), read-out: Tmax Healthy Volunteers Observed): 2.2 h | AUC(0-t) ([3]; plasma, 2400 mg, average of 8 healthy volunteers, single oral dose 2400 mg ATB, plasma, read-out: AUC0–24 Plasma): 266 ± 80 ng·h/mL | Cmax ([3]; plasma, 2400 mg, average of 8 healthy volunteers, single oral dose 2400 mg ATB, plasma, read-out: Cmax Plasma): 25.2 ± 3.82 ng/mL | half-life ([3]; plasma, 2400 mg, average of 8 healthy volunteers, single oral dose 2400 mg ATB, plasma, read-out: Half-Life Plasma (converted)): 10 ± 2.8 h | Tmax ([3]; plasma, 2400 mg, average of 8 healthy volunteers, single oral dose 2400 mg ATB, plasma, read-out: Tmax Plasma): 2 ± 0.6 h | Cmax ([3]; plasma, 2400 mg, individual subjects, single oral dose 2400 mg ATB (8 tablets), plasma, read-out: Cmax Plasma): 22.8 ng/mL | Kp ([3]; 2400 mg, average of 8 healthy volunteers, single oral dose 2400 mg ATB, read-out: AUC0–24 Saliva/Plasma Ratio): 4.8 ± 2 | Kp ([3]; 2400 mg, average of 8 healthy volunteers, single oral dose 2400 mg ATB, read-out: Cmax Saliva/Plasma Ratio): 6.4 ± 1.4 | AUC(0-t) ([3]; saliva, 2400 mg, average of 8 healthy volunteers, single oral dose 2400 mg ATB, saliva, read-out: AUC0–24 Saliva): 1210 ± 399 ng·h/mL | Cmax ([3]; saliva, 2400 mg, average of 8 healthy volunteers, single oral dose 2400 mg ATB, saliva, read-out: Cmax Saliva): 153 ± 53.5 ng/mL | half-life ([3]; saliva, 2400 mg, average of 8 healthy volunteers, single oral dose 2400 mg ATB, saliva, read-out: Half-Life Saliva (converted)): 13.4 ± 6.9 h | Tmax ([3]; saliva, 2400 mg, average of 8 healthy volunteers, single oral dose 2400 mg ATB, saliva, read-out: Tmax Saliva): 1.5 ± 0.9 h | AUC0–24 Saliva/Plasma Ratio [3, 13]: 8.57 and 4.71 and 2.86 and 4.68 and 4.61 and 4.14 and 4.81 and 3.93 | Cmax Saliva/Plasma Ratio [3, 13]: 6.73 and 5.60 and 3.26 and 5.12 and 7.05 and 7.41 and 7.27 and 9.08 | AUC0–24 Plasma [3, 14]: 173.50 ng·h/mL and 240.73 ng·h/mL and 295.05 ng·h/mL and 228.16 ng·h/mL and 408.92 ng·h/mL and 247.39 ng·h/mL and 428.83 ng·h/mL and 231.84 ng·h/mL | Cmax Plasma [3, 14]: 22.70 ng/mL and 28.06 ng/mL and 23.60 ng/mL and 28.56 ng/mL and 21.28 ng/mL and 31.91 ng/mL and 22.48 ng/mL | Half-Life Plasma [3, 14]: 6.99 h and 8.43 h and 15.12 h and 17.06 h and 10.66 h and 9.84 h and 6.29 h and 8.65 h | Tmax Plasma [3, 14]: 3 h and 3.3 h and 1 h | AUC0–24 Saliva [3, 15]: 1487.35 ng·h/mL and 1133.48 ng·h/mL and 845.11 ng·h/mL and 1067.94 ng·h/mL and 1884.98 ng·h/mL and 1024.67 ng·h/mL and 2064.14 ng·h/mL and 911.28 ng·h/mL | Cmax Saliva [3, 15]: 153.18 ng/mL and 127.11 ng/mL and 91.61 ng/mL and 120.81 ng/mL and 201.34 ng/mL and 157.71 ng/mL and 231.60 ng/mL and 204.07 ng/mL | Half-Life Saliva [3, 15]: 7.38 h and 9.83 h and 7.59 h and 26.39 h and 18.98 h and 11.13 h and 5.42 h and 12.23 h | Tmax Saliva [3, 15]: 0.5 h and 1 h and 3 h | inter-subject variability of systemic exposure (AUC) ([3]; plasma): 30.1% | inter-subject variability of systemic exposure (AUC) ([3]; saliva): 32.8% | Rbp [4]: 0.97 | bioavailability [5]: 2.4 ± 1.2% | remaining percentage in ATB tablets, Long term 3 months ([6]; 25 ± 2 °C/60 ± 5% RH): 89.1 ± 2.7% | remaining percentage in ATB tablets, Long term 6 months ([6]; 25 ± 2 °C/60 ± 5% RH): 93.9 ± 2.1% | remaining percentage in ATB tablets, Long term 12 months ([6]; 25 ± 2 °C/60 ± 5% RH): 89.6 ± 0.8% | remaining percentage in ATB tablets, Intermediate 3 months ([6]; 30 ± 2 °C/65 ± 5% RH): 89.6 ± 0.5% | remaining percentage in ATB tablets, Intermediate 6 months ([6]; 30 ± 2 °C/65 ± 5% RH): 92.1 ± 3.6% | remaining percentage in ATB tablets, Accelerated term 3 months ([6]; 40 ± 2 °C/75 ± 5% RH): 87.0 ± 5.0% | remaining percentage in ATB tablets, Accelerated term 6 months ([6]; 40 ± 2 °C/75 ± 5% RH): 99.4 ± 3.2% | Stability, 3 cycles freeze-thaw ([7]; HQC concentration level): 99.1 ± 6.7 | Stability, Bench work (4 hrs, 25 oC) ([7]; HQC concentration level): 103.1 ± 2.6 | Stability, Short-term (7 days, -20 oC) ([7]; HQC concentration level): 88.3 ± 6.6 | Stability, 3 cycles freeze-thaw ([7]; LOQ concentration level): 109.6 ± 1.3 | Stability, 3 cycles freeze-thaw ([7]; MQC concentration level): 93.7 ± 3.4 | Stability, Bench work (4 hrs, 25 oC) ([7]; MQC concentration level): 85.8 ± 8.9 | AUC0-T Human Subjects Observed [8]: 412.2 ng·h/mL | Cmax Human Subjects Observed [8]: 29.7 ng/mL | Tmax Human Subjects Observed [8]: 3.0 h

CN(C)C(=N)N=C(N)N [metformin]
Km (OCT1, OCT2 and OCT3): 285 to 3170 µM | saliva/plasma concentration ratio [9]: 0.29–0.39
